According to ChEMBL document CHEMBL4387741, “Optimization of novel reversible Bruton's tyrosine kinase inhibitors identified using Tethering-fragment-based screens” (Bioorg Med Chem, 2019):

Columns and labels:
[1] = target: Atypical kinase COQ8B, mitochondrial (Homo sapiens) (UniProt Q96D53); assay: Inhibition of wild-type human full length ADCK4 (M1 to S544 residues) expressed in bacterial expression system at 1 uM by Kinomescan method relative to control
[2] = target: Serine/threonine-protein kinase/endoribonuclease IRE1 (Homo sapiens) (UniProt O75460); assay: Inhibition of wild-type human partial length ERN1 (S551 to E852 residues) expressed in mammalian expression system at 1 uM by Kinomescan method relative to control
[3] = target: Myosin light chain kinase, smooth muscle (Homo sapiens) (UniProt Q15746); assay: Inhibition of wild-type human full length MYLK (M854 to E1845 residues) expressed in mammalian expression system at 1 uM by Kinomescan method relative to control
[4] = target: Serine/threonine-protein kinase PAK 4 (Homo sapiens) (UniProt O96013); assay: Inhibition of wild-type human partial length PAK4 (Q144 to R438 residues) expressed in bacterial expression system at 1 uM by Kinomescan method relative to control
[5] = tested on: Phosphatidylinositol 4,5-bisphosphate 3-kinase catalytic subunit alpha isoform (Homo sapiens), P42336 [I800L]; assay: Inhibition of human partial length PIK3CA I800L mutant (R108 to N1068 residues) expressed in mammalian expression system at 1 uM by Kinomescan method relative to control
[6] = tested on: Proto-oncogene tyrosine-protein kinase receptor Ret (Homo sapiens), P07949 [V804M]; assay: Inhibition of human partial length RET V804M mutant (E713 to D1014 residues) expressed in bacterial expression system at 1 uM by Kinomescan method relative to control
[7] = target: Activin receptor type-1-like (Homo sapiens) (UniProt P37023); assay: Inhibition of wild-type human ACVRL1 (L164 to Q503 residues) expressed in bacterial expression system at 10 uM by Kinomescan method relative to control
[8] = target: Serine/threonine-protein kinase B-raf (Homo sapiens) (UniProt P15056); assay: Inhibition of wild-type human partial length BRAF (S429 to E741 residues) expressed in mammalian expression system at 10 uM by Kinomescan method relative to control
[9] = target: Cyclin-dependent kinase 11B (Homo sapiens) (UniProt P21127); assay: Inhibition of wild-type human partial length CDC2L1 (P353 to G692 residues) expressed in bacterial expression system at 10 uM by Kinomescan method relative to control
[10] = target: Rhodopsin kinase GRK1 (Homo sapiens) (UniProt Q15835); assay: Inhibition of wild-type human full length GRK1 (M1 to S563 residues) expressed in mammalian expression system at 10 uM by Kinomescan method relative to control
[11] = target: Mitogen-activated protein kinase kinase kinase 13 (Homo sapiens) (UniProt O43283); assay: Inhibition of wild-type human full length LZK (M1 to W966 residues) expressed in mammalian expression system at 10 uM by Kinomescan method relative to control
[12] = target: Mitogen-activated protein kinase kinase kinase kinase 5 (Homo sapiens) (UniProt Q9Y4K4); assay: Inhibition of wild-type human partial length MAP4K5 (M1 to P297 residues) expressed in bacterial expression system at 10 uM by Kinomescan method relative to control
[13] = target: Serine/threonine-protein kinase 38-like (Homo sapiens) (UniProt Q9Y2H1); assay: Inhibition of wild-type human partial length NDR2 (N34 to E447 residues) expressed in bacterial expression system at 10 uM by Kinomescan method relative to control
[14] = target: Serine/threonine-protein kinase RIO3 (Homo sapiens) (UniProt O14730); assay: Inhibition of wild-type human full length RIOK3 (M1 to E519 residues) expressed in bacterial expression system at 10 uM by Kinomescan method relative to control
[15] = target: Serine/threonine-protein kinase tousled-like 2 (Homo sapiens) (UniProt Q86UE8); assay: Inhibition of wild-type human partial length TLK2 (E424 to N749 residues) expressed in bacterial expression system at 10 uM by Kinomescan method relative to control

Chain of Serine/threonine-protein kinase/endoribonuclease IRE1 (Homo sapiens) (O75460 19-977 limits assumed): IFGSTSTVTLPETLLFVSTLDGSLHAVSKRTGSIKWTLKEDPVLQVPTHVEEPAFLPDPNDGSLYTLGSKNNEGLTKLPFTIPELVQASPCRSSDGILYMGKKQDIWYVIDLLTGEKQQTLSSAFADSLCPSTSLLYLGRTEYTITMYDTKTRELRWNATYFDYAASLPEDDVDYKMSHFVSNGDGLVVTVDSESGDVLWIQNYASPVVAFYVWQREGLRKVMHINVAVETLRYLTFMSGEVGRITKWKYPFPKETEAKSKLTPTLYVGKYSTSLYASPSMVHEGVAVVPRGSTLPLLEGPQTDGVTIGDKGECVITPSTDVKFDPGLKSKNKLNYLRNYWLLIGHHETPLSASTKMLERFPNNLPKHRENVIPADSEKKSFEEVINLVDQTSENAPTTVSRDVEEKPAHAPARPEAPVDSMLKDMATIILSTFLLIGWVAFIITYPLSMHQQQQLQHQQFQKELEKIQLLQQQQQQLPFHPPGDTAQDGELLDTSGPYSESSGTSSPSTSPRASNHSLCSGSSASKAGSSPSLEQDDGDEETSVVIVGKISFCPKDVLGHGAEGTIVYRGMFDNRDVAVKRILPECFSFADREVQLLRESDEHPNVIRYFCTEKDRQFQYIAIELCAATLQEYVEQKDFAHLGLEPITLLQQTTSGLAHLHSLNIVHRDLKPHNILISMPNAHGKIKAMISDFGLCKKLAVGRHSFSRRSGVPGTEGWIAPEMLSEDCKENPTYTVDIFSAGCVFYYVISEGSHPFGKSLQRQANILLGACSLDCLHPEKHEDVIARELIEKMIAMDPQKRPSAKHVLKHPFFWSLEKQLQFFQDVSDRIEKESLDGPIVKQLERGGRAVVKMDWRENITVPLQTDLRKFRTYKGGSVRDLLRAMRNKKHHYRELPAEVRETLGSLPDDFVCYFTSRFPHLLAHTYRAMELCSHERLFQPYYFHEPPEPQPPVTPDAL
Chain of Mitogen-activated protein kinase kinase kinase kinase 5 (Homo sapiens) (Q9Y4K4 whole entry, looked up, the tested form may be a part): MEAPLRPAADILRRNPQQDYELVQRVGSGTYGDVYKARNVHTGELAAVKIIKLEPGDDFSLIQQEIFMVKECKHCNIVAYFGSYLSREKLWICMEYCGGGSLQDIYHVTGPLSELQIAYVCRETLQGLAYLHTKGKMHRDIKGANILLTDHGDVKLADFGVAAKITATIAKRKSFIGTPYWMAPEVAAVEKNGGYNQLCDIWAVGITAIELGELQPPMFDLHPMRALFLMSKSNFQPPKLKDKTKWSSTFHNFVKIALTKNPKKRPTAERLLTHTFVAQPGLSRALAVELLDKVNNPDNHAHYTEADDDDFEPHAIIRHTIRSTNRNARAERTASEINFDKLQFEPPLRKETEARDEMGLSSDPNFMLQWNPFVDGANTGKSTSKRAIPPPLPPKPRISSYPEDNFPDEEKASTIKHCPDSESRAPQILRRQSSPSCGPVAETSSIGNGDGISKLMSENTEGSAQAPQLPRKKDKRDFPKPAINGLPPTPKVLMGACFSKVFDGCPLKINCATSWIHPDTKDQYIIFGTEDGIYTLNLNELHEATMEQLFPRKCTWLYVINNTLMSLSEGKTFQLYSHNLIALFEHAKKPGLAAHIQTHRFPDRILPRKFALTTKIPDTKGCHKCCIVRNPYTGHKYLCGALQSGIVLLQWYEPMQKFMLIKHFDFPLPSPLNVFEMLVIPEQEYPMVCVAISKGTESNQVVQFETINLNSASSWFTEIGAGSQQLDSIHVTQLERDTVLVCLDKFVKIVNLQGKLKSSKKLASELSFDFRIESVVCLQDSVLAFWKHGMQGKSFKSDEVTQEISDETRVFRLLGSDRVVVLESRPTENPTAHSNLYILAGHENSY
Chain of Myosin light chain kinase, smooth muscle (Homo sapiens) (Q15746 whole entry, the tested form may be a part): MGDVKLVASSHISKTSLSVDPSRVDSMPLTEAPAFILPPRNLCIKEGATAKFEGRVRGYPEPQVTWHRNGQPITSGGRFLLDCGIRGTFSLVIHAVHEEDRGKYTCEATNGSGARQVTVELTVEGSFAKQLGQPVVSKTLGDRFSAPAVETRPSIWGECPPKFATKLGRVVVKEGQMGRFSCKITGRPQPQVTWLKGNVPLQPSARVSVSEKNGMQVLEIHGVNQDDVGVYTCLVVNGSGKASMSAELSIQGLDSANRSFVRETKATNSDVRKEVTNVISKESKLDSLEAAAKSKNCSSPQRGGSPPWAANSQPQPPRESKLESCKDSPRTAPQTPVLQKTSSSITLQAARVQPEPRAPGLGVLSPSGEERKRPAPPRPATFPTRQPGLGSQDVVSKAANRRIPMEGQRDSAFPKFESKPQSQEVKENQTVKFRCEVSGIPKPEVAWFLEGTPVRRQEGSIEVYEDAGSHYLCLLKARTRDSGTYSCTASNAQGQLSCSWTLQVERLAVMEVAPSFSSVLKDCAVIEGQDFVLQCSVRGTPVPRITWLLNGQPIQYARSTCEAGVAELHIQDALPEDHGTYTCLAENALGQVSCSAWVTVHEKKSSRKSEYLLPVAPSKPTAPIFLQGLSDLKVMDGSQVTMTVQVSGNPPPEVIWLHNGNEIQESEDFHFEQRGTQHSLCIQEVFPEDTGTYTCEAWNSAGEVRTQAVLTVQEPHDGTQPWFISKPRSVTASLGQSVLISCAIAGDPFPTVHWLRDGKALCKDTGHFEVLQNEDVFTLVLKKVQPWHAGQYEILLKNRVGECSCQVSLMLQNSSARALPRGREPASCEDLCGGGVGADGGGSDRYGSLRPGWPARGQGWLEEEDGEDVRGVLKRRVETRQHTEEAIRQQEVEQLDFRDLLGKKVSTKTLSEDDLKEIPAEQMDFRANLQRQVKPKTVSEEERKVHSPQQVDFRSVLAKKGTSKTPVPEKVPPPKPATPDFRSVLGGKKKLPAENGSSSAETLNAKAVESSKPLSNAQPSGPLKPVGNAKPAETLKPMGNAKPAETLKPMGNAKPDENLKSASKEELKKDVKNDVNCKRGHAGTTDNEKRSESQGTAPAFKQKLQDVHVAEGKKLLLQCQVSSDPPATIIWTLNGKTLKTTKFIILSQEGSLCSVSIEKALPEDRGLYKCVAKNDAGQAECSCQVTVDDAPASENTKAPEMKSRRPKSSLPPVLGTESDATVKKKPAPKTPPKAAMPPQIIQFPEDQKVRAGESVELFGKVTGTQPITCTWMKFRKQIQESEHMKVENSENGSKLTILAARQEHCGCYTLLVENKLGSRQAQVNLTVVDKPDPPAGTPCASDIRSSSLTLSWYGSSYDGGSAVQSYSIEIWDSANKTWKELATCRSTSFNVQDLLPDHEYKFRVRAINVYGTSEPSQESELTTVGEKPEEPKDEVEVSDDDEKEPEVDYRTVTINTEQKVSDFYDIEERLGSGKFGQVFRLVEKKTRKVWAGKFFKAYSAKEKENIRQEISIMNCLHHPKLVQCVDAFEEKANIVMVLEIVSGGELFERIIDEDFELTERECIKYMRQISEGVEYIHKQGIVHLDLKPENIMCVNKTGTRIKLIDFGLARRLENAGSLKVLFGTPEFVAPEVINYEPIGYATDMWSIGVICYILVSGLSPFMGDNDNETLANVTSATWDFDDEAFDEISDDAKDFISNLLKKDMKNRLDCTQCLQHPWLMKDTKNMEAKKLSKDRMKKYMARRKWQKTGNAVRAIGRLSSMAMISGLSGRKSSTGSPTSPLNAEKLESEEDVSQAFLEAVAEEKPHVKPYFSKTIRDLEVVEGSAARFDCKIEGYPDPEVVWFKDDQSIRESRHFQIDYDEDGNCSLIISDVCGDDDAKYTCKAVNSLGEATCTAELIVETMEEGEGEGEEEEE
Chain of Serine/threonine-protein kinase PAK 4 (Homo sapiens) (O96013 whole entry, looked up, the tested form may be a part, canonical isoform): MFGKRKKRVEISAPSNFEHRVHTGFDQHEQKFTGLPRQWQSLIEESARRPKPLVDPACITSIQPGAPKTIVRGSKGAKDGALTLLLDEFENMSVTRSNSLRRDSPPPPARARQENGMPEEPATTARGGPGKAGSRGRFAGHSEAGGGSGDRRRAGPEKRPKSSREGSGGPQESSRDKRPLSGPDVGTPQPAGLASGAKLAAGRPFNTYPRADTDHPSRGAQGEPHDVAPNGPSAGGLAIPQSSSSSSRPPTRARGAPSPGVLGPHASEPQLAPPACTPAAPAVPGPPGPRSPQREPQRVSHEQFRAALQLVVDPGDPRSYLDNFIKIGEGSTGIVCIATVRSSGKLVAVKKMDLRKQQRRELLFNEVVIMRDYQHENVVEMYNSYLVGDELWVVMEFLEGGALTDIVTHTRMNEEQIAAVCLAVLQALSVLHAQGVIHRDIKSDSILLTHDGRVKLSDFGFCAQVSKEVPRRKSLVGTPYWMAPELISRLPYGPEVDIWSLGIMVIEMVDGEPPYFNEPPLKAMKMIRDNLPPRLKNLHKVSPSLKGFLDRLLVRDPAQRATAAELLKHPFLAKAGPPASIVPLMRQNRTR
Chain of Serine/threonine-protein kinase 38-like (Homo sapiens) (Q9Y2H1 2-464 limits assumed): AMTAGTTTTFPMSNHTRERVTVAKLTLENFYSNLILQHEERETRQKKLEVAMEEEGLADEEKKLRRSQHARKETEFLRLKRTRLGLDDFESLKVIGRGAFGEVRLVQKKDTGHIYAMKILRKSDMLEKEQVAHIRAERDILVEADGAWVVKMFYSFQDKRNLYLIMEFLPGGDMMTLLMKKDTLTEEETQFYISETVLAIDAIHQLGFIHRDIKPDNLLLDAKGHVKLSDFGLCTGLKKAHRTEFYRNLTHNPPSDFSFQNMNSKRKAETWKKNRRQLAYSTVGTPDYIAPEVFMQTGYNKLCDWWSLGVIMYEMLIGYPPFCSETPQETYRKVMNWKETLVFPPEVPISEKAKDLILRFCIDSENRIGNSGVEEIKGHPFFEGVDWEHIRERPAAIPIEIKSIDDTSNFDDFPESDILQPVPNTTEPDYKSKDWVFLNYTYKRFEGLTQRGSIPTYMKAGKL

## O=C(Nc1cccc([C@@H]2CN(c3ncnc4[nH]ccc34)CCN2CCO)c1)Nc1c(F)cccc1N1CCCC1
[1]
  inhibition: 92%
[2]
  inhibition: 56%
[3]
  inhibition: 100%
[4]
  inhibition: 75%
[5]
  inhibition: 74%
[6]
  inhibition: 0.95%

## O=C(Nc1cccc([C@H]2CCCN(c3ncnc4[nH]ccc34)C2)c1)Nc1ccccc1N1CCCC1
[7]
  inhibition: 100%
[8]
  inhibition: 35%
[9]
  inhibition: 58%
[10]
  inhibition: 63%
[11]
  inhibition: 100%
[12]
  inhibition: 30%
[13]
  inhibition: 100%
[14]
  inhibition: 0.35%
[15]
  inhibition: 89%
